Data set [1] concerns corneodesmosine. Description: Evaluating desquamation by measuring the degradation of corneodesmosines (immunoblot of stratum corneum acetonic powders). The following applies: aqueous solution containing 2% of active agent, pH 8.0, incubation 17 h at 30° C., versus control without active agent. Type of data set: biochemical, human. The text has this:
Corneodesmosine is one of the major markers of desquamation of the corneodesmosome. It is studied by immunoblotting after separation by electrophoresis and transfer onto a membrane.
The mouse monoclonal antibody G36-19 is specific for corneodesmosine; it fauns part of a series of antibodies directed against epidermal differentiation antigens, produced after immunizing a mouse with a homogenate of human plantar horny layer, and then characterized (Serre G. et al., J. Invest. Dermatol. 1991; 97(6):1061-72).
Varnish-stripping operations are carried out on the lower legs of volunteers (modification of the procedure by Lundström A. and Egelrud T., Acta Derm. Venereol. (Stockholm) 71, 471-474, 1991). […]
The samples and also a Rainbow (Amersham Pharmacia Biotech) low molecular weight standard at 1/3 are separated by electrophoresis on gel containing 12% acrylamide for 30 minutes at 100 V and then for 1 hour at 200 V. After the electrophoresis, the proteins are transferred onto an Immobilon-P membrane (Millipore) for 3 hours at 60 V. The membrane is then incubated for twice 15 minutes in TBS-TL buffer: 25 mM Tris, 0.15M NaCl pH 7.2, 0.05% Tween 20, 0.5% skimmed milk powder, in order to block the non-specific sites. […] The chemiluminescence of the corneodesmosine bands is measured with the FluorS Multimager (Biorad). The 33 and 46 kD bands are quantified with the Quantity-one software (Biorad). […]
In general terms: A western blot detects proteins with antibodies after separation by electrophoresis.

Data set [2] is described as follows: Solubility of procysteine. The format is physicochemical.

The record followed here is US20100179200A1, “2-OXOTHIAZOLIDINE 4-CARBOXYLIC ACID COMPOUNDS FOR PROMOTING DESQUAMATION OF THE SKIN” (SOCIETE L'OREAL, S.A., priority 2000, published 2010).

On to `O=C1N[C@H](C(=O)O)CS1` [Procysteine, L-2-oxothiazolidine-4-carboxylic acid], for which, in data set [1], the “Percentage increase in corneodesmosine degradation” value is listed as 77%. Further, the solubility in ethanol entry in data set [2] (ethanol) is listed as “greater than 10%”. Moreover, the solubility in water entry in data set [2] (water) was “greater than 4%”.
